Results on two molecules are retold here after patent US12691056B2 (priority 2020, dated 2026).

For series [1] the following is noted: cited from earlier work.
Series [2] concerns CYP3A4 and CYP2D6 enzymes. The conditions noted are these: in vitro studies; cited from earlier work.
For series [3], the system named is CYP1A1, CYP1A2, CYP2A6, CYP2B6, CYP2C8, CYP2C9, CYP2C19, or CYP2E1 enzymes. Particulars: cited from earlier work.
For series [4] the following is noted: aripiprazole intramuscular depot formulation; cited from earlier work.
Setting [5] is: Inter-Individual Variability (CV %).
The mark [6] stands for this setting: final combined popPK model, Fixed.

Consider `O=C1CCc2ccc(OCCCCN3CCN(c4cccc(Cl)c4Cl)CC3)cc2N1` [aripiprazole, 7-[4-[4-(2,3-dichlorophenyl)-1-piperazinyl]butoxy]-3,4-dihydrocarbostyril], for which, where the note is “CYP2D6 PM subjects”, the “lower apparent clearance in CYP2D6 poor metabolizers” value was “approximately 50%”. Moreover, under setting [5], the “IIV on Vc” value is 2.18 (148%), the “IIV on deltoid IM Ka” value is reported as 0.237 (48.9%) and the “IIV on gluteal IM Ka” value is recorded as 0.359 (60.0%). Also, the “IIV on oral Ka” value (Inter-Individual Variability (CV %), Fixed) is reported as 0.434 (65.9%). Besides, under setting [6], the “CL Apparent clearance for subjects who are not poor CYP2D6 metabolizers” value is recorded as 3.71 Fixed L/hr, the “CLpm Apparent clearance for subjects who are poor CYP2D6 metabolizers” value is 1.88 Fixed Lhr, the “IM Ka_BMI Effect of BMI on IH Ka: power for (BMI/28)” value is reported as −0.975 Fixed and the “IM Ka_male Proportional shift of IM Ka for males” value worked out at 0.346 Fixed. Moreover, under setting [6], the “IMKa Gluteal IM 1st order absorption safe constant” value worked out at 0.000904 h⁻¹, the “Q1 Inter-compartmental clearance 1” value is given as 0.591 Fixed L/hr and the “Q2 Inter-compartmental clearance 2” value amounted to 28.8 Fixed L/hr. Moreover, the absolute oral bioavailability result in series [1] (tablet formulation) was “about 87%”. In addition, in series [2], the “enzyme for N-dealkylation” value is given as “catalyzed by CYP3A4”; the “enzymes for dehydrogenation and hydroxylation” value was “CYP3A4 and CYP2D6 enzymes are responsible”. Further, the “substrate of CYP1A1, CYP1A2, CYP2A6, CYP2B6, CYP2C8, CYP2C9, CYP2C19, or CYP2E1 enzymes” value in series [3] is given as “not a substrate”.

Turning to `O=c1ccc2ccc(OCCCCN3CCN(c4cccc(Cl)c4Cl)CC3)cc2[nH]1` [dehydro-aripiprazole], the “share of the parent drug exposure in plasma” value in series [4] was “about 29%”. For the same molecule, the “share of aripiprazole AUC in plasma” value in series [1] (at steady-state) is listed as “about 40%”.
